# Measurements as given in patent US20250049831A1, “ANTIVIRAL USE OF BISE[…], AND BISEPOXYLIGNAN COMPOSITION AND PREPARATION OF BISE[…]” (priority 2021, published 2025).
# Tests used:
# [1] = test system: COVID-19 virus Beta variant; assay type: cell-based
# [2] = test system: COVID-19 virus Delta variant; assay type: cell-based
Structure (SMILES),COVID-19 Beta virus SI [1],COVID-19 Delta virus SI [2]
COc1cc(O)cc(C2OCC3C(c4ccc(OC5OC(CO)C(O)C(O)C5O)c(OC)c4)OCC23)c1 (centres unmarked) [compound 1],7.64,7.14
COc1ccc([C@H]2OC[C@H]3[C@@H]2CO[C@H]3c2ccc(O[C@@H]3O[C@H](CO)[C@@H](O)[C@H](O)[C@H]3O)c(OC)c2)cc1OC [compound 2],7.10,6.86
COc1ccc(C2OCC3C(c4ccc(OC)c(OC)c4)OCC23)cc1O (centres unmarked) [compound 3],2.12,2.11
COc1ccc(C2OCC3C(c4ccc(OC(=O)C(C)c5ccc(CC(C)C)cc5)c(OC)c4)OCC23)cc1OC (centres unmarked) [compound 6],3.43,1.79
